Earlier results as cited in patent US5698219A, “Nanoemulsion of the oil water type, useful as an ophthalmic vehicle and process for the preparation thereof” (Laboratorios Cusi, S.A., priority 1994, dated 1997).

Conditions: EP 0 521 799 A1; benzalkonium chloride at 0.02% (w/v)

## C[CH2][Hg][S]c1ccccc1C(=O)[O-].[Na+] [thimerosal]
  preservative effectiveness when used individually: lack of effectiveness

## benzalkonium chloride
  preservative effectiveness when used individually: lack of effectiveness
